In ChEMBL document CHEMBL1128817, “Synthesis of bisindolylmaleimide macrocycles” (Bioorg Med Chem Lett, 1995) one finds IC50 and Ratio data, which are given here for 1 compound.

SMILES strings stand for the structures.

Test [1] has as its target Protein kinase C (PKC). The experiment in a line: Inhibition of rat brain PKC.
The nature of test [2]: Selectivity ratio of IC50 of PKA to PKC.
Test [3] can be described thus: Selectivity ratio of IC50 of PKCalpha to PKCbeta II.
Test [4] deals with Protein kinase C beta type (Homo sapiens, UniProt P05771). In words: Inhibition of Protein kinase C beta 2.
Chain of Protein kinase C beta type (P05771 whole entry): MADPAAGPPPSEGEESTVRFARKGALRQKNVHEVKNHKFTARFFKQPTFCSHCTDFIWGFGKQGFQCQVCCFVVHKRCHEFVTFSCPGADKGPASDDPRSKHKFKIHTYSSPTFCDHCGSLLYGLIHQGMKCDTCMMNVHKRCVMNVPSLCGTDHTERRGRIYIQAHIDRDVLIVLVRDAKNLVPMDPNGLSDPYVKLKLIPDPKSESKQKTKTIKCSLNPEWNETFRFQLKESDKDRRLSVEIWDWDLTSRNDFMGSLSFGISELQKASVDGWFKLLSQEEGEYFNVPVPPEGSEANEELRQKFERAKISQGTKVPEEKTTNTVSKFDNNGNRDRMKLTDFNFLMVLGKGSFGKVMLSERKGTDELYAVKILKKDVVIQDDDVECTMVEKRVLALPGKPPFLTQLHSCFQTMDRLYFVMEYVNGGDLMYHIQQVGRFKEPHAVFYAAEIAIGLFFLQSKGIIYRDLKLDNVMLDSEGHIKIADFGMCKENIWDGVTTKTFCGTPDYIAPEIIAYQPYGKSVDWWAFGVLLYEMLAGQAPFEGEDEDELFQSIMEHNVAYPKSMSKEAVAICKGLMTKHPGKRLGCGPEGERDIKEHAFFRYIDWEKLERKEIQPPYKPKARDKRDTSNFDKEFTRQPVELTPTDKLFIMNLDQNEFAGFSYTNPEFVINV

In the case of `O=C1NC(=O)C2=C1c1cn(c3ccccc13)CCCOC(CO)CCn1cc2c2ccccc21` (centres undefined), the IC50 was found to be 6400 nM in test [1] and 270 nM in test [4]. The Ratio is over 10000 in test [2] and 25 in test [3].

As usually defined, the IC50 is the concentration at which inhibition is half-maximal. Low readings indicate greater potency in that assay, high ones weaker potency in that assay.
